Entries after “also recorded” stand apart in the source; their conditions may differ. Read-outs that look alike come from different tables or passages of the source.
Columns and labels:
[1] = Aqueous behavior of ether/water blends, pH 1 to 13, chilled; type: physicochemical; settings: equal mass ratio with water, pH adjusted from 1 to 13, chilled to −15° C.
Procedure: The blends were pH adjusted from 1 to 13 and then chilled to −15° C.

[2] = Freezing points of bis-N-ethyl pyrrolidone ether/water blends by differential scanning calorimetry; type: physicochemical
Procedure: The freezing points of bis-N-ethyl pyrrolidone ether/water blends were measured using differential scanning calorimetry. All measurements were conducted under nitrogen purge from 25° C. to −80° C. at a cooling rate of 5° C./min using a Q2000 calorimeter by TA Instruments.
Freezing depressions were measured for bis-N-ethyl pyrrolidone ether/water blends (Table 3).

[3] = Freezing point depression of glycerol (or other polyol)-water blends with added ether; type: physicochemical
Procedure: Different binary blends of glycerol and water are prepared, and then bis-N-ethyl pyrrolidone ether is added in 1% increments from 0% to 50% of the ether. The freezing point depression of these compositions is measured using a suitable differential thermometer (e.g., a thermocouple).
As a specific subclass to Example 5, a eutectic blend of glycerol-water is prepared, having about 65% glycerol (by weight) and a freezing point depression of about −46° C. Bis-N-ethyl pyrrolidone ether is added in 1% increments from 0% to 50% added ether. The freezing point depression of these compositions is measured using a suitable differential thermometer (e.g., a thermocouple).
[…], replacing glycerol with ethylene glycol, propylene glycol, or pentaerythritol.

[4] = Gas hydrate inhibitor and anti-agglomerant test; settings: 0.5% and 1.0% (w/w NaCl brine solution), 123 bar, 2.8° C.
Procedure: Bis-N-ethyl pyrrolidone ether was assessed as a gas hydrate inhibitor and as an anti-agglomerant. A three-part fluid blend was prepared having equal mass amounts of Troika crude oil (black oil), synthetic condensate, and a sodium chloride brine solution into which the ether was dissolved. Ether addition levels were studied two times at 0.5% (w/w NaCl brine solution), and one time at 1.0% (w/w NaCl brine solution). The abovementioned fluid blend blanketed with Green Canyon gas (Table 6) at a pressure of 123 bar and maintained at 2.8° C. for the tests.

[5] = equal volume ratio
Source text: The blends were visually observed to determine miscibility of the ether with the various solvents.

[6] = cited from earlier work

O=C1CCCN1CCOCCN1CCCC1=O [bis-N-ethyl pyrrolidone ether]
phase behavior of blend with water [1]: single phase | freezing point ([2]; 1% in water (by mass)): −9.3 °C | freezing point ([2]; 5% in water (by mass)): −7.9 °C | freezing point ([2]; 10% in water (by mass)): −13.5 °C | freezing point ([2]; 20% in water (by mass)): −13.3 °C | freezing point ([2]; 30% in water (by mass)): −18.2 °C | freezing point ([2]; 40% in water (by mass)): −28.6 °C | freezing point ([2]; 50% in water (by mass)): −43.2 °C | freezing point ([2]; 60% in water (by mass)): <−80 °C | freezing point ([2]; 66% in water (by mass)): <−80 °C | freezing point ([2]; 75% in water (by mass)): <−80 °C | freezing point ([2]; 100% bis-N-ethyl pyrrolidone ether): <−80 °C | freezing point depression ([3]; ether added 0% to 50% to eutectic glycerol-water blend (about 65% glycerol)): lower than −46 °C | freezing point depression compared to glycerol-water binary blends ([3]; ether added 0% to 50% to glycerol-water blends): further depress the freezing point depression | freezing point depression compared to solutions without the ether ([3]; glycerol replaced with ethylene glycol, propylene glycol, or pentaerythritol): lowers the freezing point depression | formation of gas hydrates and agglomerants [4]: considerably limited gas hydrate formation; also recorded: very small | pH in a 50% aqueous solution (50% aqueous solution): 9.5 | viscosity (Cannon Fenske viscometer, #300 tube): 96.4 cP^† | color (APHA) (neat): >500 | freezing point (neat): <−80 °C | refractive index (neat): around 1.51 | specific gravity (neat): 1.148 | thermal decomposition temperature (neat): 275 °C | physical state (neat, ambient conditions): liquid (ambient conditions) | refractive index (neat, listed as bis-N-ethyl pyrrolidone): 1.5063 | surface tension (static) (plate): 50.2 | surface tension (static) (ring): 51.1 | miscibility observation ([5]; 2-propanol): miscible | miscibility observation ([5]; acetone): miscible | miscibility observation ([5]; cyclohexane): immiscible | miscibility observation ([5]; cyclohexane, listed as bis-N-ethyl pyrrolidone): insoluble | miscibility observation ([5]; ethyl acetate): miscible | miscibility observation ([5]; hexane): immiscible | miscibility observation ([5]; hexane, listed as bis-N-ethyl pyrrolidone): insoluble | miscibility observation ([5]; methanol): miscible | miscibility observation ([5]; methyl ethyl ketone): miscible | miscibility observation ([5]; toluene): miscible | miscibility observation ([5]; water): miscible

OCCO [ethylene glycol]
freezing point ([6]; 11% in water (by mass)): −3 °C | freezing point ([6]; 22% in water (by mass)): −8 °C | freezing point ([6]; 32% in water (by mass)): −16 °C | freezing point ([6]; 43% in water (by mass)): −25 °C | freezing point ([6]; 53% in water (by mass)): −37 °C | freezing point ([6]; 63% in water (by mass)): −55 °C | freezing point ([6]; ethylene glycol and water in equal mass ratio): −32 °C

Reference: patent US9351484B2, “N-alkyl lactam ethers, and compositions and uses thereof” (priority 2010, dated 2016)
